Source: patent US20250122225A1, “MASP-2 INHIBITORS AND METHODS OF USE” (Omeros Corporation, priority 2023, published 2025)
Where a name gives a salt, the structure may show the parent alone.

Columns and labels:
[1] = target: T1, MASP-2 (CCP1-CCP2-SP) (Homo sapiens, UniProt O00187); assay: Enzymatic assay for MASP-2 inhibitory activity (fluorogenic substrate); format: biochemical
T1 construct: 15 μL of Enzyme MASP-2 (CCP1-CCP2-SP) in Assay Buffer
How it was run: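 Fluorescence was normalized between no-enzyme and DMSO-only controls to derive % activity, with IC50 taken as equivalent to Ki except for tight-binding inhibitors. Reactions ran 20 min at room temperature in HEPES pH 7.4/NaCl/Tween 20 buffer, using the C2-derived fluorogenic substrate, before acetic acid stop.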

[2] = target: T2, human α-thrombin (Homo sapiens, UniProt P00734); assay: Enzymatic assay for thrombin (fluorogenic peptide substrate Boc-VPR-AMC); format: biochemical
T2 construct: enzyme (human α-thrombin (BioPharm® Lab.)) in assay buffer; purchased BioPharm® Lab
How it was run: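 Assay conditions kept the reaction linear in time, enzyme and substrate, so IC50 approximated Ki apart from tight- or slow-binding cases. Boc-VPR-AMC cleavage by human α-thrombin proceeded 20 min at room temperature in Hepes pH 7.4/NaCl/Tween 20 buffer, then was acid-quenched and read by fluorescence.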

T1 sequence (O00187 445-686 limits assumed): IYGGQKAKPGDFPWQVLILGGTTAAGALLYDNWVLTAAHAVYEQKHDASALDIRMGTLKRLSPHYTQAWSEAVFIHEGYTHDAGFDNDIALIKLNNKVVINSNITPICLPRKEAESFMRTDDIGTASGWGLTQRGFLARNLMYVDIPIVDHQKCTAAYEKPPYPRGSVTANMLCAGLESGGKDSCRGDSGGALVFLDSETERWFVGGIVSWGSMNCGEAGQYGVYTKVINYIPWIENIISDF
T1 sequence (O00187 287-444 partner limits assumed): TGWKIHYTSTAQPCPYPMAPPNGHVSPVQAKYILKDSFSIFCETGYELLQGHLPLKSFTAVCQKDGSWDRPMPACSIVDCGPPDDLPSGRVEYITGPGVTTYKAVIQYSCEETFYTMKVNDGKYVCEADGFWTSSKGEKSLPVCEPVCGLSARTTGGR

Compound | Ki [1] [nM] | Ki [2] [nM]
COc1cc(F)cc(CNc2ncc3n(c2=O)[C@H](C(=O)N[C@H](C)c2ccc(N)nc2)CC3)c1 [Compound 200, (S)-N-((R)-1-(6-aminopyridin-3-yl)ethyl)-3-((3-fluoro-5-methoxybenzyl)amino)-4-oxo-4,6,7,8-tetrahydropyrrolo[1,2-a]pyrazine-6-carboxamide trifluoroacetate] | < 500 | 2500 to 10000
C[C@@H](NC(=O)[C@@H]1CCc2cnc(NCc3cccc(-c4ccccc4)c3)c(=O)n21)c1ccc(N)nc1 [Compound 201, (S)-3-(([1,1′-biphenyl]-3-ylmethyl)amino)-N-((R)-1-(6-aminopyridin-3-yl)ethyl)-4-oxo-4,6,7,8-tetrahydropyrrolo[1,2-a]pyrazine-6-carboxamide] | < 500 | > 25000
Cc1ccccc1CNc1ncc2n(c1=O)[C@H](C(=O)N[C@H](C)c1ccc(N)nc1)CC2 [Compound 202, (S)-N-((R)-1-(6-aminopyridin-3-yl)ethyl)-3-((2-methylbenzyl)amino)-4-oxo-4,6,7,8-tetrahydropyrrolo[1,2-a]pyrazine-6-carboxamide] | < 500 | 10000 to 25000
Cc1cc(CNc2ncc3n(c2=O)[C@H](C(=O)N[C@H](C)c2ccc(N)nc2)CC3)cc(C(F)(F)F)c1 [Compound 203, (S)-N-((R)-1-(6-aminopyridin-3-yl)ethyl)-3-((3-methyl-5-(trifluoromethyl)benzyl)amino)-4-oxo-4,6,7,8-tetrahydropyrrolo[1,2-a]pyrazine-6-carboxamide] | < 500 | 2500 to 10000
Cc1cc(F)cc(CNc2ncc3n(c2=O)[C@H](C(=O)NCc2cnc4ccccn24)CC3)c1 [Compound 204, trifluoroacetate] | 2500 to 10000 | > 25000
Cc1cc(F)cc(CNc2ncc3n(c2=O)[C@H](C(=O)NCc2ccc(CN)cc2C)CC3)c1 [Compound 205, (S)—N-(4-(aminomethyl)-2-methylbenzyl)-3-((3-fluoro-5-methylbenzyl)amino)-4-oxo-4,6,7,8-tetrahydropyrrolo[1,2-a]pyrazine-6-carboxamide trifluoroacetate] | < 500 | 2500 to 10000
Cc1cc(F)cc(CNc2ncc3n(c2=O)[C@H](C(=O)NCc2c(C)cc(CN)cc2C)CC3)c1 [Compound 206, trifluoroacetate] | 500 to 2500 | 10000 to 25000
CC(C)c1cccc(CNc2ncc3n(c2=O)[C@H](C(=O)NCc2ccc(N)nc2)CC3)c1 [Compound 207, (S)—N-((6-aminopyridin-3-yl)methyl)-3-((3-isopropylbenzyl)amino)-4-oxo-4,6,7,8-tetrahydropyrrolo[1,2-a]pyrazine-6-carboxamide trifluoroacetate] | < 500 | < 500
Cc1nc(N)ccc1CNC(=O)[C@@H]1CCc2cnc(NCc3cccc(C(C)C)c3)c(=O)n21 [Compound 208] | < 500 | < 500
Cc1cc(F)cc(CNc2nc(-c3ccnn3C)c3n(c2=O)[C@H](C(=O)NCc2cc4c(s2)CNC4)CC3)c1 [Compound 209, (S)—N-((5,6-dihydro-4H-thieno[2,3-c]pyrrol-2-yl)methyl)-3-((3-fluoro-5-methylbenzyl)amino)-1-(1-methyl-1H-pyrazol-5-yl)-4-oxo-4,6,7,8-tetrahydropyrrolo[1,2-a]pyrazine-6-carboxamide trifluoroacetate] | < 500 | 2500 to 10000
Cc1cc(F)cc(CNc2nc(C3CC3)c3n(c2=O)[C@H](C(=O)NCc2ccc(N)nc2C)CC3)c1 [Compound 210, (S)—N-((6-amino-2-methylpyridin-3-yl)methyl)-1-cyclopropyl-3-((3-fluoro-5-methylbenzyl)amino)-4-oxo-4,6,7,8-tetrahydropyrrolo[1,2-a]pyrazine-6-carboxamide trifluoroacetate] | < 500 | 500 to 2500
Cc1cc(F)cc(CNc2nc(C(C)C)c3n(c2=O)[C@H](C(=O)NCc2ccc(N)nc2C)CC3)c1 [Compound 211, (S)-N-((6-amino-2-methylpyridin-3-yl)methyl)-3-((3-fluoro-5-methylbenzyl)amino)-1-isopropyl-4-oxo-4,6,7,8-tetrahydropyrrolo[1,2-a]pyrazine-6-carboxamide trifluoroacetate] | < 500 | < 500
Cc1cc(F)cc(CNc2nc(Cl)c3n(c2=O)[C@H](C(=O)NCc2ccc(N)nc2C)CC3)c1 [Compound 212, (S)—N-((6-amino-2-methylpyridin-3-yl)methyl)-1-chloro-3-((3-fluoro-5-methylbenzyl)amino)-4-oxo-4,6,7,8-tetrahydropyrrolo[1,2-a]pyrazine-6-carboxamide trifluoroacetate] | < 500 | 2500 to 10000
Cc1cc(F)cc(CNc2nc(-c3cnn(C(F)F)c3)c3n(c2=O)[C@H](C(=O)NCc2ccc(N)nc2C)CC3)c1 [Compound 214, (S)—N-((6-amino-2-methylpyridin-3-yl)methyl)-1-(1-(difluoromethyl)-1H-pyrazol-4-yl)-3-((3-fluoro-5-methylbenzyl)amino)-4-oxo-4,6,7,8-tetrahydropyrrolo[1,2-a]pyrazine-6-carboxamide trifluoroacetate] | < 500 | > 25000
Cc1cc(F)cc(CNc2nc(-c3cnn(C(F)F)c3)c3n(c2=O)[C@H](C(=O)NCc2cc4cnccc4[nH]2)CC3)c1 [Compound 215, (S)-N-((1H-pyrrolo[3,2-c]pyridin-2-yl)methyl)-1-(1-(difluoromethyl)-1H-pyrazol-4-yl)-3-((3-fluoro-5-methylbenzyl)amino)-4-oxo-4,6,7,8-tetrahydropyrrolo[1,2-a]pyrazine-6-carboxamide trifluoroacetate] | < 500 | > 25000
Cc1cc(F)cc(CNc2nc(-c3cnn(C(F)F)c3)c3n(c2=O)[C@H](C(=O)NCc2ccc(N)nc2)CC3)c1 [Compound 216, (S)-N-((6-aminopyridin-3-yl)methyl)-1-(1-(difluoromethyl)-1H-pyrazol-4-yl)-3-((3-fluoro-5-methylbenzyl)amino)-4-oxo-4,6,7,8-tetrahydropyrrolo[1,2-a]pyrazine-6-carboxamide trifluoroacetate] | < 500 | > 25000
Cc1cc(F)cc(CNc2nc(-c3ccccc3)c3n(c2=O)[C@H](C(=O)NCc2ccc(N)nc2C)CC3)c1 [Compound 217, (S)-N-((6-amino-2-methylpyridin-3-yl)methyl)-3-((3-fluoro-5-methylbenzyl)amino)-4-oxo-1-phenyl-4,6,7,8-tetrahydropyrrolo[1,2-a]pyrazine-6-carboxamide trifluoroacetate] | < 500 | > 25000
[2H]C([2H])([2H])c1nc(NCc2cc(C)cc(F)c2)c(=O)n2c1CC[C@H]2C(=O)NCc1ccc(N)nc1C [Compound 218, (S)-N-((6-amino-2-methylpyridin-3-yl)methyl)-3-((3-fluoro-5-methylbenzyl)amino)-1-(methyl-d3)-4-oxo-4,6,7,8-tetrahydropyrrolo[1,2-a]pyrazine-6-carboxamide trifluoroacetate] | < 500 | < 500
Cc1cc(F)cc(CNc2nc(-c3cnn(C(F)F)c3)c3n(c2=O)[C@H](C(=O)NCc2cc4c(s2)CNC4)CC3)c1 [Compound 219, (S)-1-(1-(difluoromethyl)-1H-pyrazol-4-yl)-N-((5,6-dihydro-4H-thieno[2,3-c]pyrrol-2-yl)methyl)-3-((3-fluoro-5-methylbenzyl)amino)-4-oxo-4,6,7,8-tetrahydropyrrolo[1,2-a]pyrazine-6-carboxamide trifluoroacetate] | < 500 | > 25000
Cc1nc(N)ccc1CNC(=O)[C@@H]1CCc2cnc(NCc3cccc(-c4ccccc4)c3)c(=O)n21 [Compound 220, (S)-3-(([1,1′-biphenyl]-3-ylmethyl)amino)-N-((6-amino-2-methylpyridin-3-yl)methyl)-4-oxo-4,6,7,8-tetrahydropyrrolo[1,2-a]pyrazine-6-carboxamide trifluoroacetate] | < 500 | < 500
Cc1cc(F)cc(CNc2nc(C#N)c3n(c2=O)[C@H](C(=O)NCc2ccc(N)nc2C)CC3)c1 [Compound 222, (S)—N-((6-amino-2-methylpyridin-3-yl)methyl)-1-cyano-3-((3-fluoro-5-methylbenzyl)amino)-4-oxo-4,6,7,8-tetrahydropyrrolo[1,2-a]pyrazine-6-carboxamide trifluoroacetate] | < 500 | 2500 to 10000
Cc1ccc(F)c(CNc2nc(C#N)c3n(c2=O)[C@H](C(=O)NCc2ccc(N)nc2C)CC3)c1 [Compound 223, trifluoroacetate] | < 500 | 2500 to 10000
Cc1cc(F)c(F)c(CNc2ncc3n(c2=O)[C@H](C(=O)N[C@H](C)c2ccc(N)nc2)CC3)c1 [Compound 224, (S)—N—((R)-1-(6-aminopyridin-3-yl)ethyl)-3-((2,3-difluoro-5-methylbenzyl)amino)-4-oxo-4,6,7,8-tetrahydropyrrolo[1,2-a]pyrazine-6-carboxamide trifluoroacetate] | < 500 | 2500 to 10000
NCc1ccc(CNC(=O)[C@@H]2CCc3c(Cl)nc(NCc4ccc5c(c4)CCCC5)c(=O)n32)s1 [Compound 225, (S)—N-((5-(aminomethyl)thiophen-2-yl)methyl)-1-chloro-4-oxo-3-(((5,6,7,8-tetrahydronaphthalen-2-yl)methyl)amino)-4,6,7,8-tetrahydropyrrolo[1,2-a]pyrazine-6-carboxamide trifluoroacetate] | < 500 | > 25000
C[C@@H]1C[C@@H](C(=O)NCc2cc3cnccc3[nH]2)n2c1cnc(NCc1ccccc1)c2=O [Compound 227, trifluoroacetate] | < 500 | 2500 to 10000
